The NIST ThermoML archive (doi:10.1016/j.fluid.2013.06.041)

Test: xn = mol fraction of the nth substance listed
Conditions: 101 kPa, Liquid, Small sample (50 mg) DSC

OCCCCO [1,4-butanediol] + O
excess molar heat capacity [J/K/mol]
Conditions	283.15 K	293.15 K	298.15 K	303.15 K	313.15 K
x1 = 0.00538	1.24	1.14	1.06	1.01	1.1
x1 = 0.01312	2.19	2.16	2.08	2.01	1.92
x1 = 0.02505	3.41	3.49	3.5	3.52	3.58
x1 = 0.02518	3.17	3.34	3.32	3.28	3.33
x1 = 0.03528	4.45	4.6	4.58	4.53	4.52
x1 = 0.04842	5.39	5.61	5.64	5.65	5.67
x1 = 0.0574	6.22	6.53	6.59	6.62	6.68
x1 = 0.07589	6.43	7.15	7.34	7.46	7.6
x1 = 0.08236	6.7	7.51	7.71	7.85	8.09
x1 = 0.09032	6.66	7.65	7.89	8.04	8.25
x1 = 0.1005	6.94	8.03	8.38	8.63	8.9
x1 = 0.1396	6.87	8.33	8.81	9.17	9.74
x1 = 0.1403	6.85	8.37	8.87	9.24	9.77
x1 = 0.1868	6.33	8.24	9.84	10.39	11.21
x1 = 0.2961	5.63	7.75	8.91	9.42	10.66
x1 = 0.3972	4.75	6.83	7.7	–	10.31
x1 = 0.4965	4.04	5.92	6.8	7.63	9.13
x1 = 0.5659	3.29	5.08	5.88	6.64	8.11
x1 = 0.7004	2.95	4.32	4.96	5.57	6.8
x1 = 0.7964	2.92	3.47	3.89	4.33	5.14
x1 = 0.8873	1.38	2.21	2.5	2.79	3.63
x1 = 0.9398	0.81	1.14	1.34	1.56	2.03

CC(O)CO (centres undefined) [1,2-propanediol] + O
excess molar heat capacity [J/K/mol]
Conditions	283.15 K	293.15 K	298.15 K	303.15 K	313.15 K
x1 = 0.02216	1.78	2.01	1.98	1.95	1.84
x1 = 0.05617	3.3	3.57	3.62	3.63	3.59
x1 = 0.07845	4.67	5.18	5.29	5.35	5.39
x1 = 0.1224	5.38	6.18	6.43	6.6	6.81
x1 = 0.1545	5.22	6.19	6.5	6.73	6.96
x1 = 0.1667	4.94	6.02	6.37	6.62	6.95
x1 = 0.1873	4.62	5.79	6.18	6.49	6.9
x1 = 0.2272	4.15	5.41	5.86	6.21	6.72
x1 = 0.2878	2.67	4.01	4.52	4.94	5.62
x1 = 0.3965	1.6	3.11	3.65	4.08	4.77
x1 = 0.4863	0.67	1.88	2.34	2.75	3.53
x1 = 0.5274	0.69	1.74	2.17	2.58	3.35
x1 = 0.6388	0.77	1.63	1.97	2.3	3.01
x1 = 0.753	0.72	1.32	1.55	1.76	2.18
x1 = 0.7757	0.8	1.04	1.24	1.47	1.96
x1 = 0.9045	0.26	0.38	0.11	0.14	0.32
x1 = 0.9677	0.09	–	–	–	–

OCCCO [propan-1,3-diol] + O
excess molar heat capacity [J/K/mol]
Conditions	283.15 K	293.15 K	298.15 K	303.15 K	313.15 K
x1 = 0.02483	1.28	1.4	1.43	1.44	1.46
x1 = 0.03693	1.89	2.08	2.13	2.16	2.26
x1 = 0.05016	2.35	2.72	2.83	2.9	2.99
x1 = 0.07515	2.54	3.22	3.44	3.59	3.8
x1 = 0.1401	2.24	3.61	4.11	4.52	5.08
x1 = 0.1504	2.2	3.67	4.21	4.64	5.27
x1 = 0.299	1.59	3.18	3.84	4.43	5.44
x1 = 0.3982	1.31	2.66	3.28	3.85	4.81
x1 = 0.4976	1.26	2.34	2.82	3.25	4.02
x1 = 0.5955	1.15	1.92	2.33	2.74	3.48
x1 = 0.7025	–	1.71	1.95	2.2	2.64
x1 = 0.7902	0.98	1.19	1.3	1.4	1.49
x1 = 0.9455	0.48	0.53	0.58	0.61	0.55
